# Results published in patent US11319303B2 (WIGEN BIOMEDICINE TECHNOLOGY (SHANGHAI) CO., LTD., priority 2017, dated 2022).
# Biological target: LC3B (Homo sapiens, UniProt Q9GZQ8)
# Test: Fluorescence Polarization (FP) Assay: displacement of FITC-labeled peptide from GST-LC3B
# Type: binding
# Details: not given
# Protocol: The compounds of the present invention for regulating the autophagy-related protein LC3B were tested by Fluorescence Polarization (FP) Assay.
# Fluorescence Polarization (FP) Assay Test
row,SMILES,IC50 [µM]
1,"CN(C)C=C1C(=O)CC(C2CCCCC2)CC1=O (centres unmarked) [Compound 262, 4-((dimethylamino)methylene)-[1,1′-bi(cyclohexane)]-3,5-dione]",< 3

# Same assay, conditions: Fluorescence Polarization assay; GST-LC3B 180 nM, FITC-labeled peptide 18 nM, 25° C.; read-out: IC50
row,IC50 [µM],SMILES
1,< 3,"CN(C)C=C1C(=O)CC(c2cccc3c2CCCC3)CC1=O (centres unmarked) [Compound 280, 2-((dimethylamino)methylene)-5-(5,6,7,8-tetrahydro-naphthalen-1-yl)cyclohexane-1,3-dione]"
2,< 3,"CN(C)C=C1C(=O)CC(c2ccc3[nH]ccc3c2)CC1=O (centres unmarked) [Compound 281, 2-((dimethylamino)methylene)-5-(1H-indol-5-yl)cyclohexane-1,3-dione]"
3,< 3,"CN(C)C=C1C(=O)CC(c2csc3ccccc23)CC1=O (centres unmarked) [Compound 282, 5-(benzo[b]thiophen-3-yl)-2-((dimethylamino)methylene) cyclohexane-1,3-dione]"
4,< 3,"CN(C)C=C1C(=O)CC(c2c[nH]c3ccccc23)CC1=O (centres unmarked) [Compound 283, 2-((dimethylamino)methylene)-5-(1H-indol-3-yl)cyclohexane-1,3-dione]"
5,3 to 15,"CC(C)Cn1cccc1C1CC(=O)C(=CN(C)C)C(=O)C1 (centres unmarked) [Compound 284, 2-((dimethylamino)methylene)-5-(1-isobutyl-1H-pyrrol-2-yl)cyclohexane-1,3-dione]"
6,3 to 15,"CN(C)C=C1C(=O)CC(c2ccnc3ccccc23)CC1=O (centres unmarked) [Compound 285, 2-((dimethylamino)methylene)-5-(quinolin-4-yl)cyclohexane-1,3-dione]"
7,< 3,"CN(C)C=C1C(=O)CC(c2n[nH]c3ccccc23)CC1=O (centres unmarked) [Compound 286, 2-((dimethylamino)methylene)-5-(1H-indazol-3-yl)cyclohexane-1,3-dione]"
8,3 to 15,"CN(C)C=C1C(=O)CC(c2cncc3ccccc23)CC1=O (centres unmarked) [Compound 287, 2-((dimethylamino)methylene)-5-(isoquinolin-4-yl)cyclohexane-1,3-dione]"
9,3 to 15,"CN(C)C=C1C(=O)CC(c2cccn2Cc2ccccc2)CC1=O (centres unmarked) [Compound 288, 5-(1-benzyl-1H-pyrrol-2-yl)-2-((dimethylamino)methylene) cyclohexane-1,3-dione]"
10,3 to 15,"Cc1ccccc1Cc1ccccc1C1CC(=O)C(=CN(C)C)C(=O)C1 (centres unmarked) [Compound 289, 2-((dimethylamino)methylene)-5-(2-(2-methylbenzyl)phenyl) cyclohexane-1,3-dione]"
11,3 to 15,"Cc1cccc(Cc2ccccc2C2CC(=O)C(=CN(C)C)C(=O)C2)c1 (centres unmarked) [Compound 290, 2-((dimethylamino)methylene)-5-(2-(3-methylbenzyl)phenyl) cyclohexane-1,3-dione]"
12,3 to 15,"Cc1ccc(Cc2ccccc2C2CC(=O)C(=CN(C)C)C(=O)C2)cc1 (centres unmarked) [Compound 291, 2-((dimethylamino)methylene)-5-(2-(4-methylbenzyl)phenyl) cyclohexane-1,3-dione]"
13,3 to 15,"Cc1ccc2c(C3CC(=O)C(=CN(C)C)C(=O)C3)c[nH]c2c1 (centres unmarked) [Compound 293, 2-((dimethylamino)methylene)-5-(6-methyl-1H-indol-3-yl)cyclohexane-1,3-dione]"
14,< 3,"CN(C)C=C1C(=O)CC(c2cn(C)c3ccccc23)CC1=O (centres unmarked) [Compound 294, 2-((dimethylamino)methylene)-5-(1-methyl-1H-indol-3-yl)cyclohexane-1,3-dione]"
15,3 to 15,"CN(C)C=C1C(=O)CC(c2cccc3c2ccn3C)CC1=O (centres unmarked) [Compound 295, 2-((dimethylamino)methylene)-5-(1-methyl-1H-indol-4-yl)cyclohexane-1,3-dione]"
16,< 3,"Cc1[nH]c2ccccc2c1C1CC(=O)C(=CN(C)C)C(=O)C1 (centres unmarked) [Compound 296, 2-((dimethylamino)methylene)-5-(2-methyl-1H-indol-3-yl)cyclohexane-1,3-dione]"
17,< 3,"Cc1cccc2c(C3CC(=O)C(=CN(C)C)C(=O)C3)c[nH]c12 (centres unmarked) [Compound 297, 2-((dimethylamino)methylene)-5-(7-methyl-1H-indol-3-yl)cyclohexane-1,3-dione]"
18,< 3,"Cc1cccc2[nH]cc(C3CC(=O)C(=CN(C)C)C(=O)C3)c12 (centres unmarked) [Compound 298, 2-((dimethylamino)methylene)-5-(4-methyl-1H-indol-3-yl)cyclohexane-1,3-dione]"
19,3 to 15,"Cc1ccc2[nH]cc(C3CC(=O)C(=CN(C)C)C(=O)C3)c2c1 (centres unmarked) [Compound 299, 2-((dimethylamino)methylene)-5-(5-methyl-1H-indol-3-yl)cyclohexane-1,3-dione]"
20,< 3,"CN(C)CCNC=C1C(=O)CC(c2ccccc2I)CC1=O (centres unmarked) [Compound 300, 2-(((2-(dimethylamino)ethyl)amino)methylene)-5-(2-iodophenyl) cyclohexane-1,3-dione]"
21,< 3,"CN(C)CCNC=C1C(=O)CC(c2ccc(F)cc2F)CC1=O (centres unmarked) [Compound 301, 5-(2,4-difluorophenyl)-2-(((2-(dimethylamino)ethyl)amino)methylene) cyclohexane-1,3-dione]"

# Continued, compound first:
row,SMILES,IC50 [µM]
1,"COc1ccc(C2CC(=O)C(=CNCCN3CCN(C(=O)N4CCOCC4)CC3)C(=O)C2)cc1 (centres unmarked) [Compound 246, 5-(4-methoxyphenyl)-2-(((2-(4-(morpholine-4-carbonyl)piperazin-1-yl)ethyl)amino)-methylene) cyclohexane-1,3-dione]",< 3
2,"CN(C)C(=O)N1CCN(CCNC=C2C(=O)CC(c3ccc(Cl)cc3)CC2=O)CC1 (centres unmarked) [Compound 248, 4-(2-(((4-(4-chlorophenyl)-2,6-dioxocyclo-hexylidene)methyl)amino)ethyl)-N,N-dimethylpiperazine-1-carboxamide]",< 3
3,"O=C1CC(c2ccc(Cl)cc2)CC(=O)C1=CNCCN1CCN(C(=O)N2CCOCC2)CC1 (centres unmarked) [Compound 249, 5-(4-chlorophenyl)-2-(((2-(4-(morpholine-4-carbonyl)piperazin-1-yl)ethyl)amino)methylene) cyclohexane-1,3-dione]",< 3
4,"CN(C)C=C1C(=O)CC(c2ccc3c(c2)CCO3)CC1=O (centres unmarked) [Compound 251, 5-(2,3-dihydrobenzofuran-5-yl)-2-((dimethylamino)methylene) cyclohexane-1,3-dione]",< 3
5,"CN(C)C=C1C(=O)CC(c2ccc(C(F)(F)F)cc2)CC1=O (centres unmarked) [Compound 254, 2-((dimethylamino)methylene)-5-(4-(trifluoromethyl)phenyl) cyclohexane-1,3-dione]",< 3
6,"CN(C)C=C1C(=O)CC(c2cccc(C(F)(F)F)c2)CC1=O (centres unmarked) [Compound 255, 2-((dimethylamino)methylene)-5-(3-(trifluoromethyl)phenyl) cyclohexane-1,3-dione]",< 3
7,"CC(=O)Nc1ccc(C2CC(=O)C(=CN(C)C)C(=O)C2)cc1 (centres unmarked) [Compound 256, N-(4-(4-((dimethylamino)methylene)-3,5-dioxocyclohexyl)phenyl) acetamide]",< 3
8,"CN(C)C=C1C(=O)CC(c2cccnc2)CC1=O (centres unmarked) [Compound 257, 2-((dimethylamino)methylene)-5-(pyridin-3-yl)cyclohexane-1,3-dione]",15 to 100
9,"CN(C)C=C1C(=O)CC(c2ccc3[nH]ncc3c2)CC1=O (centres unmarked) [Compound 259, 2-((dimethylamino)methylene)-5-(1H-indazol-5-yl)cyclohexane-1,3-dione]",< 3
10,"O=C1CC(c2ccc(C(=O)O)cc2)CC(=O)C1=CNCCN1CCOCC1 (centres unmarked) [Compound 260, 4-(4-(((2-morpholinoethyl)amino)methylene)-3,5-dioxocyclohexyl) benzoic acid]",< 3
11,"CN(C)C=C1C(=O)CC(c2cccs2)CC1=O (centres unmarked) [Compound 264, 2-((dimethylamino)methylene)-5-(thiophen-2-yl)cyclohexane-1,3-dione]",< 3
12,"CN(C)C=C1C(=O)CC(c2ccc(Cl)nc2)CC1=O (centres unmarked) [Compound 266, 5-(6-chloropyridin-3-yl)-2-((dimethylamino)methylene) cyclohexane-1,3-dione]",3 to 15
13,"CN(C)C=C1C(=O)CC(c2cccc(C(=O)NCCc3ccccc3)c2)CC1=O (centres unmarked) [Compound 267, 3-(4-((dimethylamino)methylene)-3,5-dioxocyclohexyl)-N-phenethylbenzamide]",3 to 15
14,"CN(C)C=C1C(=O)CC(c2cccc(C(=O)NCCCCc3ccccc3)c2)CC1=O (centres unmarked) [Compound 269, 3-(4-((dimethylamino)methylene)-3,5-dioxocyclohexyl)-N-(4-phenylbutyl)-benzamide]",3 to 15
15,"CN(C)C=C1C(=O)CC(c2cccc3[nH]ccc23)CC1=O (centres unmarked) [Compound 271, 2-((dimethylamino)methylene)-5-(1H-indol-4-yl)cyclohexane-1,3-dione]",< 3
16,"CN(C)C=C1C(=O)CC(Cc2ccccc2)CC1=O (centres unmarked) [Compound 272, 5-benzyl-2-((dimethylamino)methylene) cyclohexane-1,3-dione]",3 to 15
17,"CC(C)CNC(=O)C1CC(=O)C(=CN(C)C)C(=O)C1 (centres unmarked) [Compound 273, 4-((dimethylamino)methylene)-N-isobutyl-3,5-dioxocyclohexane-1-carboxamide]",15 to 100
18,"CCCNC(=O)C1CC(=O)C(=CN(C)C)C(=O)C1 (centres unmarked) [Compound 274, 4-((dimethylamino)methylene)-3,5-dioxo-N-propylcyclohexane-1-carboxamide]",15 to 100
19,"CC(C)CC1CC(=O)C(=CN(C)C)C(=O)C1 (centres unmarked) [Compound 276, 2-((dimethylamino)methylene)-5-isobutylcyclo-hexane-1,3-dione]",15 to 100
20,"CN(C)C=C1C(=O)CC(c2cccc3ccccc23)CC1=O (centres unmarked) [Compound 277, 2-((dimethylamino)methylene)-5-(naphthalen-1-yl)cyclohexane-1,3-dione]",< 3
21,"CN(C)C=C1C(=O)CC(c2ccc3ccccc3c2)CC1=O (centres unmarked) [Compound 278, 2-((dimethylamino)methylene)-5-(naphthalen-2-yl)cyclohexane-1,3-dione]",< 3
22,"CCCCn1cccc1C1CC(=O)C(=CN(C)C)C(=O)C1 (centres unmarked) [Compound 279, 5-(1-butyl-1H-pyrrol-2-yl)-2-((dimethylamino)methylene) cyclohexane-1,3-dione]",3 to 15
